What was measured:
Test in all cases: combination Emax (second highest fraction inhibited in the dose matrix, 72 h); higher = more inhibition; extreme values may be limits of the assay
[1] = test system: BE2-M17 (Neuroblastoma)
In short: (§1)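 After 24 hours at 37°C and 5% CO2 in 1536-well plates, cells in DMEM/F12 or RPMI plus 10% FBS received two-drug dose matrices for 72 hours. Viability came from CellTiter-Glo 2.0 luminescence and was scaled as inhibition, anchored at 0 by vehicle wells and at 1 by blank wells. Combination Emax is taken as the second-highest inhibition in the matrix, and Bliss excess as the observed combination effect less EA + EB − EA·EB, with EA and EB the single-agent effects.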

[2] = test system: MPP-89 (Mesothelioma)
In short: as §1

[3] = test system: CAL-72 (Osteosarcoma)
In short: as §1

[4] = test system: ESS-1 (Other Solid Carcinomas)
In short: as §1

[5] = test system: Detroit562 (Head and Neck Carcinoma)
In short: as §1

[6] = test system: NUGC-4 (Gastric Carcinoma)
In short: as §1

[7] = test system: HuH-7 (Hepatocellular Carcinoma)
In short: as §1

[8] = test system: SW1573 (Lung Adenocarcinoma)
In short: as §1

[9] = test system: FTC-133 (Thyroid Gland Carcinoma)
In short: as §1

[10] = test system: OVCAR-5 (Ovarian Carcinoma)
In short: as §1

[11] = test system: HuCCT1 (Biliary Tract Carcinoma)
In short: as §1

[12] = test system: KMRC-20 (Kidney Carcinoma)
In short: as §1

[13] = test system: NCI-H2052 (Mesothelioma)
In short: as §1

[14] = test system: HH (T-Cell Non-Hodgkin's Lymphoma)
In short: as §1

[15] = test system: A673 (Ewing's Sarcoma)
In short: as §1

[16] = test system: NCI-H1568 (Lung Adenocarcinoma)
In short: as §1

[17] = test system: NCI-H209 (Small Cell Lung Carcinoma)
In short: as §1

[18] = test system: MHH-CALL-2 (B-Lymphoblastic Leukemia)
In short: as §1

[19] = test system: BPH-1 (Non-Cancerous)
In short: as §1

[20] = test system: YAPC (Pancreatic Carcinoma)
In short: as §1

SMILES | combination Emax [1] | combination Emax [2] | combination Emax [3] | combination Emax [4] | combination Emax [5] | combination Emax [6] | combination Emax [7] | combination Emax [8] | combination Emax [9] | combination Emax [10] | combination Emax [11] | combination Emax [12] | combination Emax [13] | combination Emax [14] | combination Emax [15] | combination Emax [16] | combination Emax [17] | combination Emax [18] | combination Emax [19] | combination Emax [20]
NC1(C(=O)N[C@@H](CCO)c2ccc(Cl)cc2)CCN(c2ncnc3[nH]ccc23)CC1 [Capivasertib] + CC(=O)c1c(C)c2cnc(Nc3ccc(N4CCNCC4)cn3)nc2n(C2CCCC2)c1=O [Palbociclib] (first compound max 10 µM, 7x7, partner max 10 µM) | 0.463 | 0.382 | 0.481 | 0.593 | 0.783 | 0.305 | 0.23 | 0.382 | 0.565 | 0.455 | 0.43 | 0.372 | 0.419 | 0.426 | 0.271 | 0.357 | 0.603 | 0.216 | 0.518 | 0.281
NC1(C(=O)N[C@@H](CCO)c2ccc(Cl)cc2)CCN(c2ncnc3[nH]ccc23)CC1 [Capivasertib] + CC(C)n1c(=O)n(C)c2cnc3cc(F)c(-c4ccc(OCCCN5CCCCC5)nc4)cc3c21 [AZD1390] (first compound max 10 µM, 7x7, partner max 0.3 µM) | 0.177 | 0.439 | 0.265 | 0.46 | 0.599 | 0.145 | 0.156 | 0.235 | 0.582 | 0.32 | 0.24 | 0.336 | 0.407 | 0.256 | 0.292 | 0.163 | 0.17 | 0.231 | 0.459 | 0.223
NC1(C(=O)N[C@@H](CCO)c2ccc(Cl)cc2)CCN(c2ncnc3[nH]ccc23)CC1 [Capivasertib] + CCN(CCO)CCCOc1ccc2c(Nc3cc(CC(=O)Nc4cccc(F)c4)[nH]n3)ncnc2c1 [AZD2811] (first compound max 10 µM, 7x7, partner max 1 µM) | 0.493 | 0.435 | 0.321 | 0.812 | 0.892 | 0.0827 | 0.225 | 0.374 | 0.643 | 0.401 | 0.309 | 0.398 | 0.427 | 0.281 | 0.703 | 0.22 | 0.428 | 0.532 | 0.587 | 0.233
NC1(C(=O)N[C@@H](CCO)c2ccc(Cl)cc2)CCN(c2ncnc3[nH]ccc23)CC1 [Capivasertib] + COc1nnc2ccc(N3CCC(c4ccc(OCCN5CCN(C)C(=O)[C@H]5C)cc4)CC3)nn12 [AZD5153] (first compound max 10 µM, 7x7, partner max 1 µM) | 0.696 | 0.495 | 0.481 | 0.738 | 0.925 | 0.542 | 0.518 | 0.409 | 0.73 | 0.624 | 0.609 | 0.398 | 0.427 | 0.439 | 0.434 | 0.305 | 0.539 | 0.338 | 0.691 | 0.309
NC1(C(=O)N[C@@H](CCO)c2ccc(Cl)cc2)CCN(c2ncnc3[nH]ccc23)CC1 [Capivasertib] + C[C@@H]1COCCN1C2=NC(=NC(=C2)C3(CC3)[S@](=N)(=O)C)C4=C5C=CNC5=NC=C4 [AZD6738] (first compound max 10 µM, 7x7, partner max 10 µM) | 0.702 | 0.545 | 0.842 | 0.959 | 0.918 | 0.469 | 0.453 | 0.461 | 0.802 | 0.742 | 0.688 | 0.647 | 0.57 | 0.349 | 0.804 | 0.664 | 0.9 | 0.954 | 0.574 | 0.334
NC1(C(=O)N[C@@H](CCO)c2ccc(Cl)cc2)CCN(c2ncnc3[nH]ccc23)CC1 [Capivasertib] + Cn1cnc2c(F)c(Nc3ccc(Br)cc3Cl)c(C(=O)NOCCO)cc21 [Selumetinib] (first compound max 10 µM, 7x7, partner max 10 µM) | 0.654 | 0.386 | 0.305 | 0.526 | 0.798 | 0.329 | 0.45 | 0.362 | 0.608 | 0.69 | 0.717 | 0.392 | 0.443 | 0.246 | 0.469 | 0.229 | 0.163 | 0.582 | 0.716 | 0.346
CS(=O)(=O)CCNCc1ccc(-c2ccc3ncnc(Nc4ccc(OCc5cccc(F)c5)c(Cl)c4)c3c2)o1 [Lapatinib] + C[C@@H](Oc1cc(-c2cnn(C3CCNCC3)c2)cnc1N)c1c(Cl)ccc(F)c1Cl [Crizotinib] (first compound max 10 µM, 7x7, partner max 10 µM) | 0.868 | 0.696 | 0.906 | 0.917 | 1 | 0.808 | 0.925 | 0.462 | 0.84 | 0.834 | 0.883 | 0.916 | 0.61 | 0.327 | 0.808 | 0.952 | 0.927 | 1 | 0.949 | 0.636
CC(=O)c1c(C)c2cnc(Nc3ccc(N4CCNCC4)cn3)nc2n(C2CCCC2)c1=O [Palbociclib] + CC1(C)CCC(CN2CCN(c3ccc(C(=O)NS(=O)(=O)c4ccc(NCC5CCOCC5)c([N+](=O)[O-])c4)c(Oc4cnc5[nH]ccc5c4)c3)CC2)=C(c2ccc(Cl)cc2)C1 [Venetoclax] (first compound max 10 µM, 7x7, partner max 1 µM) | 0.386 | 0.0837 | 0.345 | 0.294 | 0.543 | 0.194 | 0.0832 | 0.204 | 0.0919 | 0.346 | 0.309 | 0.214 | 0.133 | 0.343 | 0.136 | 0.423 | 0.921 | 0.155 | 0.153 | 0.165
CC(=O)c1c(C)c2cnc(Nc3ccc(N4CCNCC4)cn3)nc2n(C2CCCC2)c1=O [Palbociclib] + Cc1c2c(nn1C)CSCc1cc(n(C)n1)CSc1cc(c3ccccc3c1)OCCCc1c(C(=O)O)n(C)c3c-2c(Cl)ccc13 [AZD5991] (first compound max 10 µM, 7x7, partner max 1 µM) | 0.409 | 0.261 | 0.441 | 0.266 | 0.569 | 0.252 | 0.215 | 0.2 | 0.18 | 0.389 | 0.32 | 0.291 | 0.304 | 0.911 | 0.453 | 0.418 | 0.908 | 0.998 | 0.281 | 0.288
CC(=O)c1c(C)c2cnc(Nc3ccc(N4CCNCC4)cn3)nc2n(C2CCCC2)c1=O [Palbociclib] + Cn1cnc2c(F)c(Nc3ccc(Br)cc3Cl)c(C(=O)NOCCO)cc21 [Selumetinib] (first compound max 10 µM, 7x7, partner max 10 µM) | 0.606 | 0.14 | 0.361 | 0.283 | 0.588 | 0.392 | 0.344 | 0.164 | 0.202 | 0.587 | 0.556 | 0.158 | 0.189 | 0.407 | 0.177 | 0.206 | 0.594 | 0.31 | 0.518 | 0.379
COc1cccc(OCCCN)c1-c1cc(Nc2cnc(C#N)cn2)n[nH]1 [Prexasertib] + CCc1c2c(nc3ccc(O)cc13)-c1cc3c(c(=O)n1C2)COC(=O)[C@]3(O)CC [SN-38] (first compound max 1 µM, 7x7, partner max 0.3 µM) | 0.999 | 0.897 | 0.949 | 1 | 1 | 0.484 | 0.861 | 0.925 | 1 | 0.89 | 0.875 | 0.982 | 0.853 | 0.829 | 0.998 | 0.848 | 1 | 1 | 0.972 | 0.653
Cn1cnc2c(F)c(Nc3ccc(Br)cc3Cl)c(C(=O)NOCCO)cc21 [Selumetinib] + C=CCn1c(=O)c2cnc(Nc3ccc(N4CCN(C)CC4)cc3)nc2n1-c1cccc(C(C)(C)O)n1 [AZD1775] (first compound max 10 µM, partner max 1 µM) | 0.887 | 0.566 | 0.519 | 0.936 | 0.639 | 0.526 | 0.327 | 0.361 | 0.778 | 0.58 | 0.793 | 0.567 | 0.284 | 0.0977 | 0.203 | 0.489 | 0.858 | 0.793 | 0.535 | 0.396
Cn1cnc2c(F)c(Nc3ccc(Br)cc3Cl)c(C(=O)NOCCO)cc21 [Selumetinib] + CC(C)n1c(=O)n(C)c2cnc3cc(F)c(-c4ccc(OCCCN5CCCCC5)nc4)cc3c21 [AZD1390] (first compound max 10 µM, 7x7, partner max 0.3 µM) | 0.508 | 0.0892 | 0.165 | 0.246 | 0.367 | 0.481 | 0.275 | 0 | 0.166 | 0.563 | 0.517 | 0.131 | 0.193 | 0.198 | 0.185 | 0.142 | 0.0904 | 0.256 | 0.487 | 0.193

— the supplement of paper PMC11061612
